Measurements taken from patent publication US6517853B1, “Process for preparing a crystal suspension” (Syngenta Limited, priority 1999, dated 2003).

What was measured:
[1] = Storage of crystalline dispersion, Ostwald ripening (crystal growth) under optical microscope; type: physicochemical; details: 1% w/w sonicated dispersion, after one week
Text: (§1) A small sample of the cooled sonicated emulsion was transferred using a capillary tube to a microscope slide and was protected with a glass cover slip. The slide was viewed using transmitted light or cross-polarised light (Zeiss microscope) and an image recorded on a calibrated micrograph. The micrograph provides information as to the size (μm), shape and degree of crystallinity of the droplets or crystals.
The number of spheres/particles in the final dispersion was similar to the number of droplets in the original hot emulsion which indicated nucleation had occurred preferentially in the droplets.

[2] = ΔH/RT value (heat of fusion by differential scanning calorimetry divided by R and melting point in K); type: physicochemical
Procedure: The value ΔH/RT is a well understood expression which means the enthalpy (heat) of fusion of a compound (ΔH in kJmol^−1) at the normal melting point of the compound divided by the molar gas constant (R, where R is 8.31451 Jmol^−1K^−1) and the melting point of the compound measured on the absolute or Kelvin scale (in °K). Thus, for example, the ΔH/RT value of octadecane, which has a melting point of 28.2° C. and a heat of fusion of 61.39 kJmol^−1 (see the CRC Handbook of Chemistry and Physics, [1996-1997], 77th Edition. 6-138) is calculated as follows: […]
The heat of fusion of a compound (ΔH) may be measured by differential scanning calorimetry. A suitable method is described by McNaughton, J. L. and Mortimer, C. T. in IRS: Physical Chemistry Series 2, Butterworth, London 1975, Vol 10; subsequently reprinted by Perkin-Elmer Corpn. Norwalk, Conn., USA.

[3] = Optical microscope image analysis of droplet / crystal size in aqueous emulsion or dispersion; type: physicochemical; details: for crystal size immediately after sonication: all four samples (6 and 2 lhr^−1); for droplet size of hot emulsion: before cooling
Text: as §1

[4] = CRC Handbook of Chemistry and Physics, 77th Edition; cited from earlier work
[5] = enthalpy of fusion at normal melting point / (R × melting point in K)
[6] = 1% w/w aqueous dispersion, cooled to 20° C., continuous sonication 500 w
[7] = 1% w/w in aqueous Mowiol 18-88, emulsified five minutes by high shear mixer
[8] = 1% w/w aqueous dispersion, sonicated, higher flow (6 lhr^−1)

CCCCNC(=O)OCC#CI [IPBC, 3-iodo-2-propynyl butyl carbamate]
Ostwald ripening (crystal growth) of sonicated dispersion [1]: no sign of “Ostwäld” ripening
ΔH/RT [2, 5]: 9.25
crystal size immediately after sonication [3, 6]: < 10 μm
droplet size of hot emulsion [3, 7]: ≤ 10 μm

C=C1C2CC[C@@H](C2)C1(C)C [camphene, (1S)-2,2-dimethyl-3-methylenebicyclo[2.2.1]heptane]
ΔH/RT [2, 5]: 1.15
size of plates after sonication [3, 8]: 30 μm
size of small needles after sonication [3, 8]: 2 μm

CCCCCCCCCCCCCCCCCC [octadecane]
ΔH/RT ([2]; calculated from CRC Handbook melting point 28.2° C. and heat of fusion): 24.5
heat of fusion [4]: 61.39 kJmol^−1

α-methyl-4-(2-methylpropyl)benzene acetic acid [ibuprofen]
ΔH/RT [2, 5]: 9.33
crystal size immediately after sonication [3, 6]: < 10 μm
droplet size of hot emulsion [3, 7]: ≤ 10 μm
crystal size (twinned crystals) without sonication ([3]; 2% aqueous dispersion, cooled without sonication, equilibrated for 18 hrs): 100-200 μm
crystal size (crystalline spheres) immediately after sonication ([3]; 20% w/w aqueous dispersion, cooled to 20° C., continuous sonication 500 w, all four samples): < 10 μm
droplet size of hot emulsion ([3]; 20% w/w in aqueous Mowiol 18-88, emulsified five minutes by high shear mixer): ≤ 10 μm
